How the values were obtained:
human skin [1] = settings: both, in vivo
human skin [2] = settings: 107 subjects
Source text: Subjects fulfilled specific inclusion criteria including not being pregnant or breastfeeding, being over 18 years old, having healthy skin, and not having used any dermatological or cosmetic preparation on the test area within 5 days before the beginning of the study.
Briefly, the tested hydrogels were applied under occlusion on the outer aspect of the upper arm for a defined time. The applications were repeated 9 times over a period of 3 consecutive weeks, a duration necessary for the possible induction of an immune response. The irritancy potential was evaluated and compared to the irritancy potential of the standard, SLS. After a two-week rest period with no treatment, the tested hydrogels were applied under occlusion to the induction site and to a virgin site on the volar side of the underarm for a defined period of time to trigger a possible immune response.
The final pH of the hydrogels was adjusted to about 5.5.
Possible skin reactions to the products were scored according to the scale reproduced in Table 5 above.
In summary, the test product is considered to have a low sensitization potential if none of the subjects reported a grade 2 or higher dermal response on days 38 to 40 and no more than two subjects reported a grade 1 dermal response on days 38 to 40. A moderate sensitization potential is assigned if a maximum of 2 subjects reported a grade 2 or higher dermal response on days 38 to 40 and a maximum of 4 subjects reported a grade 1 response on days 38 to 40. A high sensitization potential is assigned if 3 or more subjects reported a grade 2 or higher dermal response on days 38 to 40 and 5 or more subjects reported a grade 1 response on days 38 to 40.
The cumulative irritancy score represents the sum of the irritancy scores assigned on days 3, 5, 8, 10, 12, 15, 17, 19, and 22. […] An irritancy score was assigned to each induction and virgin site on days 36, 38, 39 and 40, and their respective scores were added up separately to produce the cumulative irritancy score presented in the fourth column of Table 10. The fifth and sixth columns indicate the number of subjects that experienced a grade 2 or greater response on each of days 38, 39 and 40, and the number of subjects that experienced a grade 1 response on each of days 38, 39, and 40.

[3] = Uptake rates of active agents into hydrogel samples; type: physicochemical; settings: for time to reach the same concentration in the hydrogel as the uptake solution: 1 mm hydrogel samples, methylene blue 1 ppm, p-nitrophenol 0.4 wt. %
Procedure: Uptake solutions of methylene blue (1 ppm) and p-nitrophenol (0.4 wt. %) were prepared. […] The hydrogels were then carefully blotted of excess solution and were each transferred into a second beaker containing 30 ml of a 10 mM phosphate buffer solution with a pH of 6 to equilibrate.
The hydrogels were continuously agitated to ensure that the equilibrium state was reached. The uptake of p-nitrophenol and methylene blue was assumed to correspond to the amount that was released into the washing buffer solution. […] Methylene blue was similarly measured at 655 nm and the calibration curve was in the range of 0.0025 ppm to 3 ppm.

concentration in hydrogel relative to the initial uptake solution ([3]; within an hour) | Compound | C: Glazing with peeling & cracking, number of subjects (human skin [1]) | D: Glazing with fissures, number of subjects (human skin [1]) | E: Film of dried serious exudate covering all or part of the patch site, number of subjects (human skin [1]) | F: Small petechial erosions and/or scabs, number of subjects (human skin [1]) | Maximum single score (human skin [1]) | Maximum sum (human skin [1]) | Minimum single score (human skin [1]) | Minimum sum (human skin [1]) | N (reacting subjects) (human skin [1]) | Slight itch, number of subjects (human skin [1]) | Sum of scores for dermal reactions (human skin [1]) | Cumulative Irritancy Score (human skin [2]; 22-day induction phase) | Number of reacting subjects (human skin [2]; 22-day induction phase) | Type of Reactivity (human skin [2]; 22-day induction phase) | subjects with slight glazed appearance and/or marked glazing (human skin [2]; induction phase) | time to reach the same concentration in the hydrogel as the uptake solution [3]
 | CCCCCCCCCCCCOS(=O)(=O)[O-].[Na+] [Positive Control, sodium lauryl sulphate] | 0 | 0 | 0 | 0 | 1 | 3 | 0 | 0 | 19 | 0 | 23.00 | 21 | 11 | Minimal erythema | 20 | 
6 times | CN(C)c1ccc2nc3ccc(=[N+](C)C)cc-3sc2c1 [methylene blue] |  |  |  |  |  |  |  |  |  |  |  |  |  |  |  | less than 1.50 minutes
 | O=[N+]([O-])c1ccc(O)cc1 [p-nitrophenol] |  |  |  |  |  |  |  |  |  |  |  |  |  |  |  | about 15 minutes

Source: patent US20050214376A1, “Hydrogel-containing medical articles and methods of using and making the same” (priority 2003, published 2005)
